Reference: ChEMBL document CHEMBL4483862, “Open-source discovery of chemical leads for next-generation chemoprotective antimalarials” (2018)

System: Plasmodium berghei
Experiment: Luciferase/luciferin-expressing antifolate-resistant parasites were used to infect a culture of HepG2 cells that were pre-incubated with compounds. Infected hepatocytes emit light due to the luciferase reaction. Assay results are presented as the percent inhibition of light emission compared to control. […]
Assay type: functional
Conditions: sporozoite; for IC90: read-out: LUCIFERASE INFECTION ASSAY - IC90

Row | SMILES | IC90 [µM] | other results
1 | Cc1ccc(-n2c(C)cc(C(=O)COC(=O)c3cccnc3O)c2C)cc1C | 6.62 | IC50 (PBLUC_HILL_SLOPE 1.34, PBLUC_R_SQUARED 0.562, read-out: LUCIFERASE INFECTION ASSAY - IC50): 1.29 µM
2 | O=C(Nc1ccc(N2CCCCCC2)cc1)c1ccc[nH]1 | 2.88 | IC50 (PBLUC_HILL_SLOPE 1.36, PBLUC_R_SQUARED 0.768, read-out: LUCIFERASE INFECTION ASSAY - IC50): 0.569 µM
3 | CCOC(=O)c1cnn(-c2ccc(Cc3ccc(-n4ncc(C(=O)OCC)c4C)cc3)cc2)c1C | > 6.98 | IC50 (PBLUC_HILL_SLOPE 1.32, PBLUC_R_SQUARED 0.439, read-out: LUCIFERASE INFECTION ASSAY - IC50): 2.06 µM
4 | CN(C)CCNc1ccnc2c(-c3ccccc3Oc3ccccc3)cnn12 | > 8.84 | IC50 (PBLUC_HILL_SLOPE 1.31, PBLUC_R_SQUARED 0.651, read-out: LUCIFERASE INFECTION ASSAY - IC50): 5.14 µM
5 | CNc1nc2cnc(Nc3ccc(OC(C)C)cc3)cc2n1-c1cc(OC)c(OC)c(OC)c1 | > 10 | IC50 (PBLUC_HILL_SLOPE 1.37, PBLUC_R_SQUARED 0.322, read-out: LUCIFERASE INFECTION ASSAY - IC50): 5.86 µM
6 | O=C(Nc1ccccc1)Nc1ccccc1Sc1nccc(C(F)(F)F)n1 | 8.05 | IC50 (PBLUC_HILL_SLOPE 1.34, PBLUC_R_SQUARED 0.717, read-out: LUCIFERASE INFECTION ASSAY - IC50): 1.57 µM
7 | O=[N+]([O-])c1ccc(Oc2c(Cl)cc(Cl)cc2Cl)cc1 | > 10.4 | IC50 (PBLUC_HILL_SLOPE 1.34, PBLUC_R_SQUARED 0.555, read-out: LUCIFERASE INFECTION ASSAY - IC50): 3.75 µM
8 | Clc1cccc(-c2cnn3c(NCCCN4CCOCC4)ccnc23)c1 | > 8.87 | IC50 (PBLUC_HILL_SLOPE 1.37, PBLUC_R_SQUARED 0.567, read-out: LUCIFERASE INFECTION ASSAY - IC50): 3.66 µM
9 | CC(C)Nc1cc(-c2ccccc2)nc2c(-c3ccccc3)cnn12 | > 10 | IC50 (PBLUC_HILL_SLOPE 1.35, PBLUC_R_SQUARED 0.594, read-out: LUCIFERASE INFECTION ASSAY - IC50): 2.01 µM
10 | Cc1ccc(OCC(=O)Nc2cc(NC(=O)c3ccco3)ccc2C)c(C)c1 | 8.08 | IC50 (PBLUC_HILL_SLOPE 1.36, PBLUC_R_SQUARED 0.771, read-out: LUCIFERASE INFECTION ASSAY - IC50): 1.61 µM
11 | CCOc1ccc(C(C)=O)cc1CSc1nc2scc(-c3ccccc3)c2c(=O)n1C | > 10 | IC50 (PBLUC_HILL_SLOPE 1.32, PBLUC_R_SQUARED 0.21, read-out: LUCIFERASE INFECTION ASSAY - IC50): > 10 µM
12 | COc1cc(-c2cc3[nH]c4ccccc4n3c(=O)c2Sc2ccc([N+](=O)[O-])cc2)cc(OC)c1OC | 9.18 | IC50 (PBLUC_HILL_SLOPE 1.34, PBLUC_R_SQUARED 0.513, read-out: LUCIFERASE INFECTION ASSAY - IC50): 1.78 µM
13 | CCOC(=O)/C(=N\Nc1cccc(C(F)(F)F)c1)NC(C)c1ccccc1 (stereo not given) | > 10 | IC50 (PBLUC_HILL_SLOPE 1.36, PBLUC_R_SQUARED 0.117, read-out: LUCIFERASE INFECTION ASSAY - IC50): > 10 µM
14 | O=C(Nc1ccc([N+](=O)[O-])cc1Br)C(Nc1ccc2c(c1)OCCO2)c1ccccc1 (stereo not given) | > 10 | IC50 (PBLUC_HILL_SLOPE 1.35, PBLUC_R_SQUARED 0.497, read-out: LUCIFERASE INFECTION ASSAY - IC50): 2.53 µM
15 | O=C(NNC(=O)c1sccc1OCc1ncc(C(F)(F)F)cc1Cl)c1ccccc1 | > 7.24 | IC50 (PBLUC_HILL_SLOPE 1.3, PBLUC_R_SQUARED 0.614, read-out: LUCIFERASE INFECTION ASSAY - IC50): 4.13 µM
16 | Cc1c(C)n(CCCN(C)C)c2ncn3nc(-c4ccc(N(C)C)cc4)nc3c12 | > 8.43 | IC50 (PBLUC_HILL_SLOPE 1.37, PBLUC_R_SQUARED 0.575, read-out: LUCIFERASE INFECTION ASSAY - IC50): 3.73 µM
17 | COCCCn1c(SCc2ccc(C)cc2)nnc1-c1ccc(C(C)(C)C)cc1 | > 8.06 | IC50 (PBLUC_HILL_SLOPE 1.28, PBLUC_R_SQUARED 0.571, read-out: LUCIFERASE INFECTION ASSAY - IC50): > 8.06 µM
18 | CCCc1cc(-n2ccnc2)n2ncc(-c3ccccc3)c2n1 | > 10.9 | IC50 (PBLUC_HILL_SLOPE 1.29, PBLUC_R_SQUARED 0.543, read-out: LUCIFERASE INFECTION ASSAY - IC50): 5.89 µM
19 | CN1CCN(c2ccc(Cl)cc2NC(=O)c2cccc(Oc3ccccc3)c2)CC1 | 2.23 | IC50 (PBLUC_HILL_SLOPE 1.31, PBLUC_R_SQUARED 0.699, read-out: LUCIFERASE INFECTION ASSAY - IC50): 0.415 µM
20 | N#CC(c1ccccc1)c1ccc(NC(=S)NCC2CCCO2)cc1Cl (stereo not given) | > 10 | IC50 (PBLUC_HILL_SLOPE 1.33, PBLUC_R_SQUARED 0.895, read-out: LUCIFERASE INFECTION ASSAY - IC50): 4.42 µM

Row | SMILES | IC90 [µM] | other results
21 | CC(=O)NCc1ccc(C(=O)Nc2ccccc2O)cc1 | 9.91 | IC50 (PBLUC_HILL_SLOPE 1.36, PBLUC_R_SQUARED 0.725, read-out: LUCIFERASE INFECTION ASSAY - IC50): 1.97 µM
22 | CCSc1nccc(-c2ccc3c(c2)CCC(C)(C)O3)n1 | 3.37 | IC50 (PBLUC_HILL_SLOPE 1.33, PBLUC_R_SQUARED 0.696, read-out: LUCIFERASE INFECTION ASSAY - IC50): 0.648 µM
23 | CCn1c(C(=O)OC)c(NC(=O)C2CCOC2)c2cc(NCC(C)c3ccccc3)cnc21 (stereo not given) | > 7.32 | IC50 (PBLUC_HILL_SLOPE 1.36, PBLUC_R_SQUARED 0.443, read-out: LUCIFERASE INFECTION ASSAY - IC50): 5.53 µM
24 | c1ccc(NCCNc2nc(-c3ccncc3)nc3ccccc23)nc1 | > 10 | IC50 (PBLUC_HILL_SLOPE 1.36, PBLUC_R_SQUARED 0.325, read-out: LUCIFERASE INFECTION ASSAY - IC50): 5.09 µM
25 | O=C(Nc1ccc(Oc2cc(C(F)(F)F)cc(C(F)(F)F)c2)cc1)c1cccs1 | 0.356 | IC50 (PBLUC_HILL_SLOPE 1.36, PBLUC_R_SQUARED 0.733, read-out: LUCIFERASE INFECTION ASSAY - IC50): 0.0707 µM
26 | Cn1cc(CN2CCC3(CC2)C(=O)N(CCCc2cccnc2)C(=O)N3Cc2ccccc2)c2ccccc21 | > 6.33 | IC50 (PBLUC_HILL_SLOPE 1.35, PBLUC_R_SQUARED 0.738, read-out: LUCIFERASE INFECTION ASSAY - IC50): 3.23 µM
27 | CCCNC(=O)c1c(NC(=O)c2ccc(F)cc2)nc2ccc(C)cn12 | > 9.31 | IC50 (PBLUC_HILL_SLOPE 1.32, PBLUC_R_SQUARED 0.773, read-out: LUCIFERASE INFECTION ASSAY - IC50): 3.1 µM
28 | CC(=O)Nc1ccc(NC(=O)/C=C/c2cc(C)n(-c3ccccc3)c2C)c(C(F)(F)F)c1 | 9.3 | IC50 (PBLUC_HILL_SLOPE 1.31, PBLUC_R_SQUARED 0.816, read-out: LUCIFERASE INFECTION ASSAY - IC50): 1.74 µM
29 | CC(C)NC(=O)C1(C)CCN1C(=O)c1ccc(-c2ccccc2)cc1 (stereo not given) | > 9.81 | IC50 (PBLUC_HILL_SLOPE 1.28, PBLUC_R_SQUARED 0.251, read-out: LUCIFERASE INFECTION ASSAY - IC50): > 9.81 µM
30 | CC(C)c1cc(Cl)n2ncc(-c3ccccc3)c2n1 | > 12.1 | IC50 (PBLUC_HILL_SLOPE 1.33, PBLUC_R_SQUARED 0.849, read-out: LUCIFERASE INFECTION ASSAY - IC50): 4.61 µM
31 | CCOC(=O)c1c(C)[nH]c(C(=O)Nc2ncccc2C)c1C | > 10 | IC50 (PBLUC_HILL_SLOPE 1.33, PBLUC_R_SQUARED 0.354, read-out: LUCIFERASE INFECTION ASSAY - IC50): 2.54 µM
32 | OC[C@H]1O[C@@H](c2nc(-c3nc(-c4ccc5c(c4)OCO5)no3)cs2)C[C@@H]1O | 2.15 | IC50 (PBLUC_HILL_SLOPE 1.28, PBLUC_R_SQUARED 0.808, read-out: LUCIFERASE INFECTION ASSAY - IC50): 0.386 µM
33 | Cc1cc(C)n2ncc(C(=O)Nc3cccc(/C=C/c4ccccn4)c3)c2n1 | 8.17 | IC50 (PBLUC_HILL_SLOPE 1.28, PBLUC_R_SQUARED 0.742, read-out: LUCIFERASE INFECTION ASSAY - IC50): 1.46 µM
34 | CCN(CC)CCSc1nc(-c2ccc(C)cc2)nc2c1COC(C)(C)C2 | > 8.56 | IC50 (PBLUC_HILL_SLOPE 1.36, PBLUC_R_SQUARED 0.0849, read-out: LUCIFERASE INFECTION ASSAY - IC50): > 8.56 µM
35 | CCc1cccc2c(C(=O)CN3CCC(C(=O)N4CCCCCC4)CC3)c[nH]c12 | > 10 | IC50 (PBLUC_HILL_SLOPE 1.3, PBLUC_R_SQUARED 0.149, read-out: LUCIFERASE INFECTION ASSAY - IC50): > 10 µM
36 | CCN(CC)Cc1nc(N2CCN(Cc3c(C)nc4ccc(C)cn34)CC2)c2c(C)c(C)sc2n1 | > 10 | IC50 (PBLUC_HILL_SLOPE 1.28, PBLUC_R_SQUARED 0.354, read-out: LUCIFERASE INFECTION ASSAY - IC50): 5.6 µM
37 | c1csc(SCc2ccc3nonc3c2)c1 | > 13.3 | IC50 (PBLUC_HILL_SLOPE 1.33, PBLUC_R_SQUARED 0.35, read-out: LUCIFERASE INFECTION ASSAY - IC50): > 13.3 µM
38 | O=C(c1c[nH]c2ccccc12)C(c1ccccc1)N1CCN(CC(=O)N2CCCC2)CC1 (stereo not given) | > 10 | IC50 (PBLUC_HILL_SLOPE 1.28, PBLUC_R_SQUARED 0.65, read-out: LUCIFERASE INFECTION ASSAY - IC50): 3.5 µM
39 | COc1cc(C(=O)OCC(=O)c2ccc(-c3ccccc3)cc2)c([N+](=O)[O-])cc1OC | > 10 | IC50 (PBLUC_HILL_SLOPE 1.3, PBLUC_R_SQUARED 0.199, read-out: LUCIFERASE INFECTION ASSAY - IC50): > 10 µM
40 | Cc1cc(CSc2ccccc2)ccc1NC(=O)Nc1ccccc1 | > 9.47 | IC50 (PBLUC_HILL_SLOPE 1.29, PBLUC_R_SQUARED 0.521, read-out: LUCIFERASE INFECTION ASSAY - IC50): 2.22 µM
